{"source": "patent US12139505B2", "about": "“Compositions useful in therapy of autophagy-related pathologies, and methods of making and using the same” (The University of Toledo, priority 2017, dated 2024)", "key": {"RG2 glioma cells [1]": {"test_system": "RG2 glioma cells", "experiment": "Autophagic flux assay (LC3-II western blot in the presence of bafilomycin-A1)", "format": "cell-based, rat", "procedure": "In the assay, cells are treated with subtoxic concentrations of bafilomycin-A, which blocks lysosomal acidification. This prevents autophagosome fusion with lysosomes at a specific point. For example, RG2 glioma cells (or other cell types) are “clamped” by addition of 10-50 nM bafilomycin-A1 to block autophagosome fusion with lysosomes and eliminate autophagy clearance. Then, autophagy flux is measured by the conjugation of phosphatidylethanolamine to LC3-I, yielding an electrophoretically separable LC3-II by western blot. LC3-II acts as a link between nascent autophagosomes and cargo being directed into these structures. An autophagy enhancer will increase LC3-II in the presence of bafilomycin, whereas a compound that inhibits autophagy completion will not do so. Thus, the L3A-I to LC3A-II conversion in the presence of bafilomycin-A1 constitutes a valid measure of autophagy.\nFor the assays, rat glioma cells RG2 (ATCC® CRL-2433™; RG2 cells) were cultured. […] The cells were then incubated for an additional 4 h. At termination, the cell culture medium was removed, cells were washed with PBS and lysed on ice in Pierce RIPA buffer containing protease and phosphatase inhibitors.\nWestern Blotting: The proteins were electrophoresed and wet-blotted to polyvinylidine difluoride membranes, blocked overnight in 4% bovine serum albumin, and developed using antibodies obtained from Cell Signaling Technology (L3A: cat #. 4599; ULK1: cat #. 8054, ULK1(p757): cat #. 6880).\nRG2 glioma cells were treated without drug (first column in FIG. 8A) or 4 h with 50 nM bafilomycin-A1 (BAF), the indicated concentration of LK, or the phosphonate analog 2-isopropyl-LK-3-phosphonate. The western blot results are shown in FIG. 8A, where the lower band corresponds to LC3-II. An increase in the intensity of this band in the presence of bafilomycin-A1 indicates increased autophagic flux. […] Similar results are shown in FIG. 9 with respect to the LK-P compound 2-butyl-lanthionine-phosphonate (also referred to as 2-n-butyl-lanthionine-phosphonate or 2-n-butyl-LK-P).\nRG2 glioma cells (American Tissue Type Collection, ATTC, Rockville MD USA) were treated for 4 h with 50 nM bafilomycin-A1 (previously dissolved to 1000× final concentration in dimethylsulfoxide). Thirty minutes after addition of bafilomycin, cells were treated with test agents at 100× final concentration. Cells were lysed in RIPA buffer containing protease and phosphatase inhibitors. Protein concentration was assayed and normalized to constant values (typically 5-7 mg/mL). Proteins were electrophoresed across 4-20% polyacrylamide gels and wet blotted onto polyvinylidine difluoride (PVDF) membranes. Proteins were blotted with commercially available antibodies against LC3."}, "RG2 glioma cells [2]": {"test_system": "RG2 glioma cells", "experiment": "Proliferative capacity of glioma cells, tetrazolium reduction assay", "format": "cell-based, rat", "procedure": "Biomarkers of autophagy have been positively correlated with relatively better prognosis (longer patient lifespan) in humans suffering from high grade glioma. Accordingly, phosphonate analogs were tested for ability to reduce replicative capacity in RG2 glioma cells wherein the compounds increase autophagy. Cells were plated at low density (approximately 25,000 cells/[…]) using general cell culture methods, and treated with logarithmic dilutions of test agent. After 24 or 48 hours, cell number was estimated by tetrazolium reduction assay using a commercially available kit (Promega Aqueous OneStep™). […] By 48 h the cells had largely achieved confluence and became somewhat contact inhibited, thus reducing the difference between control and treatment groups."}, "SH-SY5Y cells": {"test_system": "SH-SY5Y cells", "experiment": "Cell viability, MTS assay", "format": "cell-based, human", "conditions": "for average cell viability: 24 hours; for toxicity to neuroblastoma cells: 0.1 to 1 μM", "procedure": "Synthesized compounds were added to a 3-dram screw capped vial, followed by DMSO (ca. 5 mL) to make a 10 mM stock solution. The test stock solution was made and used on the same day. 100 μL of the 10 mM stock solution was diluted into 900 μL of DMSO (1:9 dilution) to make 1 mM stock solution. 100 μL of the 1 mM stock solution was diluted into 900 μL of DMSO (1:9 dilution) to make a 100 μM solution. 100 μL of the 100 μM stock solution was diluted into 900 µL of DMSO (1:9 dilution) to make a 10 μM stock solution. The test solutions were prepared by using the dilution ratio of 10 μL stock solutions into 990 μL (1:99 dilution) of Complete Culture Media (CCM) to afford drug solution (1% DMSO) from 0.1 to 100 μM. For positive control: 10 mg/mL of TritonX-100 is diluted in CCM. For negative control: 1 μL of DMSO is dissolved in every 100 μL of CCM.\nCells were grown in bulk in 100 mm petri dishes. On the day of use, the cell culture media was removed from the dish. SH-SY5Y cells were washed with PBS, then 0.25% Trypsin/EDTA was used to aid in detaching the cells, CCM was then added to neutralize the Trypsin/EDTA and wash the cells from the dish. Washed cells are collected in a centrifuge tube for concentration. After centrifugation at 2000 RPM for 5 minutes, the cells were re-suspended in CCM. The final concentration of cells was 5×10^3 per 100 μL The 5000 cells/100 μL solution was seeded into a clear, flat bottomed, 96-well microliter plate and incubated for 24 hours at 37° C. in 5% CO2. After 24 hours, the media was removed and replaced by 100 μL CCM containing the drug/positive/negative control and was incubated at 37° C. in a 5% CO2 for 24 hours. After this incubation period, 20 μL of MTS solution was added to each well via a multichannel pipette. The plates were shaken by hand to thoroughly mix the MTS solution into the media and incubated at 37° C. in a 5% CO2 for 4 hours. The absorbance was read at 490 nm using the Synergy Neo microplate reader."}, "PINK1^B9 flies": {"test_system": "PINK1^B9 flies", "experiment": "Fly sleep behavior", "format": "in vivo, Drosophila melanogaster", "procedure": "2-n-hexyl-LKE-P was dissolved in DMSO and supplemented into a warm solution of minimal media (5% sucrose, 2% agarose and water, 60° C.) to a final concentration of 10, 100 and 1000 μM. Freshly eclosed adult flies were transferred to minimal media containing the drug for one day followed by the experiments. Flies were transferred individually, under CO2 anesthesia, into 5 mm×65 mm (outside diameter×length) polycarbonate recording tubes with food on one end and yarn plugs on the other. Sleep parameters were continuously evaluated using the TriKinetics Drosophila activity monitoring system. Sleep is defined as 5 min or more of continuous inactivity, the minimum amount of time to qualify as a single sleep bout. Zeitgeber time (ZT) 0 is defined as the time of lights on, and ZT12 is defined as the time of lights off. Mobility (activity) was also monitored and data tabulated based on the number of beam counts, and diurnal variations were calculated. The sleep and mobility data were collected and analyzed."}}, "note": "“Also recorded” adds a separate entry of the source."}
{"smiles": "CCCCCCC1=C(P(=O)(O)O)N[C@H](C(=O)OCC)CS1", "note": "[2-n-hexyl-LKE-P]", "values": [{"measurement": "concentration at which the compound is potent in stimulating autophagy", "setting": "RG2 glioma cells [1]; RG2 cells, FIG. 32A", "result": 0.1, "unit": "µM"}, {"measurement": "potency relative to known results for LKE", "setting": "RG2 glioma cells [1]; RG2 cells, FIG. 32A", "result": "approximately 10 fold"}, {"measurement": "autophagic flux / autophagy stimulation (LC3-II band in the presence of bafilomycin-A1)", "setting": "RG2 glioma cells [1]; RG2 glioma cells, 4 h, 50 nM bafilomycin-A1, western blot", "result": "stimulate autophagy in RG2 cells"}, {"measurement": "fewer cells (reduced replicative capacity) relative to cells treated with no drug", "setting": "RG2 glioma cells [2]; 24 h, greater than or equal to 1 nM", "result": "at least 50%"}, {"measurement": "concentration range of the minimum in cell number", "setting": "RG2 glioma cells [2]; 48 h", "result": "1 to 10", "unit": "mM"}, {"measurement": "replication of cultures", "setting": "RG2 glioma cells [2]; first 24 h", "result": "replicated more slowly in the first 24 h"}, {"measurement": "concentration at which toxicity begins to show", "setting": "SH-SY5Y cells", "result": 10, "unit": "µM"}, {"measurement": "average cell viability", "setting": "SH-SY5Y cells; 10 μM", "result": 83, "unit": "%"}, {"measurement": "average cell viability", "setting": "SH-SY5Y cells; 100 μM", "result": 63, "unit": "%"}, {"measurement": "toxicity to neuroblastoma cells", "setting": "SH-SY5Y cells", "result": "not toxic"}, {"measurement": "toxicity to neuroblastoma cells", "setting": "SH-SY5Y cells; listed as 2-n-heyxl-LKE-P", "result": "no toxicity"}, {"measurement": "sleep of treated wild-type flies versus vehicle-treated wild-type flies", "setting": "PINK1^B9 flies; Day 1 or Day 8", "result": "No differences were observed"}, {"measurement": "daytime sleep of PINK1^B9 flies", "setting": "PINK1^B9 flies; day 1, 1000 μM", "result": "did not change the sleeping pattern and the daytime sleeping time; also recorded: did not show any changes"}, {"measurement": "daytime sleep of PINK1^B9 flies", "setting": "PINK1^B9 flies; day 8 (one week), 1000 μM", "result": "decreased the daytime sleeping time; also recorded: reversal of excessive daytime sleep"}]}
